The text below walks through data of US4046879A, “Antiviral compositions” (priority 1975, dated 1977).

Assay [1] has as its system rhinovirus-ribonucleic acid. Briefly: Role of the hydrolyzable β-γ-oxygen-bridge in autocatalytic degradation of rhinovirus RNA. The format is biochemical. The text has this:
3. The essential role of the hydrolyzable β-γ-oxygen-bridge in the nucleoside triphosphate for the autocatalytic degradation of the rhinovirus-ribonucleic acid was shown by: […]

For assay [2], the system named is radioactive-labeled rhinovirus ribonucleic acid. The assay can be described thus: Synergism test: inducible decomposition of P32-labeled rhinovirus RNA. The format is biochemical. Particulars: 30 minutes, pH 7.6, 36° C. The method, then: 6. The synergistic effect of the complexing agent (e.g. sodium pyrophosphate) and phosphorylating agent (e.g. adenosine triphosphate) was shown by means of the inducible decomposition of radioactive-labeled rhinovirus ribonucleic acid: Aliquotes (10^6 plaque-forming units) of purified rhinoviruses, the ribonucleic acid of which had been labeled with phosphorus-32, were incubated for 30 minutes with 5 n moles of adenosine triphosphate, either separately or with increasing quantities of sodium pyrophosphate at a pH-value of 7.6 and 36° C. As control values sodium pyrophosphate was used in various concentrations without adenosine triphosphate.

`Nc1ncnc2c1ncn2[C@@H]1O[C@H](COP(=O)(O)OP(=O)(O)OP(=O)(O)O)[C@@H](O)[C@H]1O` [Adenosine triphosphate, adenosine triphosphate]: the “removal of P^32-labeled γ-phosphate during the reaction with rhinovirus” value in assay [1] (Mg^++ -ion free medium) was “formation of adenosine diphosphate and rhinovirus-bonded P^32”. In addition, in assay [2] (adenosine triphosphate 5 n moles, sodium pyrophosphate 0), the “% degradation of the viral ribonucleic acid” value is given as below 7.5%.

As for `Nc1ncnc2c1ncn2[C@@H]1O[C@H](COP(=O)(O)OP(=O)(O)NP(=O)(O)O)[C@@H](O)[C@H]1O` [Adenosine-imido-diphosphate], in assay [1], the “initiating the autocatalytic inactivation of the rhinoviruses” value is recorded as “completely ineffective”.

On to `O=P([O-])([O-])OP(=O)([O-])[O-].[Na+].[Na+].[Na+].[Na+]` [Sodium pyrophosphate, sodium pyrophosphate], for which the “% degradation of the viral ribonucleic acid” value in assay [2] (adenosine triphosphate 0, sodium pyrophosphate 50 n moles) was below 10%; in assay [2] (adenosine triphosphate 0, sodium pyrophosphate 250 n moles), below 10%; in assay [2] (adenosine triphosphate 0, sodium pyrophosphate 500 n moles), below 10%.

For the molecule `Nc1ncnc2c1ncn2[C@@H]1O[C@H](COP(=O)(O)OP(=O)(O)O)[C@@H](O)[C@H]1O` [adenosine diphosphate], the “induction of the autocatalytic RNA-degradation” value in assay [1] is given as “Inactivity”.
